Where “and” joins values, the source holds several entries; their conditions need not be identical. Equal values may be shown once. Read-outs that look alike come from different tables or passages of the source. Marks after values point to notes of the source that are not given here.
How the values were obtained:
[1] = set-up: method as in earlier work; settings: 55 (55, 60); cited from earlier work
[2] = In vitro dissolution, USP II paddle apparatus; format: physicochemical
Experimental: All dissolution tests were performed using a calibrated USP II (paddle) apparatus (Erweka DT 80, Heusenstamm, Germany) at 37 ± 0.4 °C. Each vessel contained 500 mL of fresh, pre-warmed medium and the rotational speed was set at 75 rpm. Samples were withdrawn at 2.5, 5, 10, 15, 20, 30, 45, 60, 90, and 120 min via a 5 mL glass syringe connected to a stainless-steel cannula containing a 10 μm polyethylene cannula filter. Immediately thereafter, the sample was filtered through a 0.45 μm PTFE filter (ReZist 30, GE Healthcare UK Ltd., Buckinghamshire, United Kingdom), discarding the first 2 mL. The filtrate was immediately diluted with mobile phase and analyzed by HPLC-UV (see Section 2.5). The removal of 5 mL at each sampling time was considered in the calculation of the percentage dissolved. All experiments were performed at least in triplicate (n ≥ 3) and the final pH in the vessel was recorded.
Samples obtained from solubility and dissolution experiments were first filtered through a 0.45 μm PTFE filter (ReZist 30 syringe filter or Uniprep; Whatman, Piscataway, NJ, USA) and subsequently, after appropriate dilution with mobile phase, analyzed by HPLC-UV (Hitachi Chromaster; Hitachi Ltd., Tokyo, Japan or Spectra System HPLC, ThermoQuest Inc., San Jose, CA, USA). A BDS Hypersil C18, 5 μm, 150 × 4.6 mm (Thermo Scientific, Waltham, MA, United States) analytical column combined with a pre-column (BDS Hypersil C-18, 3μm, 10 × 4mm) was used. The mobile phase consisted of water adjusted to pH = 3.0 with trifluoroacetic acid (TFA) and acetonitrile (49.5:0.5:50% v/v). The detection wavelength was set at 247 nm, the flow rate at 1.0 mL/min, and the injection volume at 20 μL. Using this method, the retention time was approximately 6.8 min. The limit of detection (LOD) and quantification (LOQ) were 0.03 and 0.05 μg/mL, respectively.

Caco-2 cells = settings: cited from earlier work
CYP2C9 = settings: cited from earlier work
CYP2C9 3*/3* = settings: Recombinant CYP (fu,mic = 1), cited from earlier work
[3] = cited from earlier work
UGT1A9 = settings: Recombinant UGT; cited from earlier work
physchem = format: physicochemical
Description: An experimental estimate of FLU pKa was obtained by fitting the Henderson–Hasselbalch equation (Equation (1)) to the mean aqueous equilibrium solubility (Si) values using the SIVA Toolkit version 3.0 (SIVA 3; Certara, Simcyp Division; Sheffield, UK). The lowest reported value in buffers was assumed to represent the intrinsic solubility (S0) . The pKa was then compared with values available in the literature to confirm the validity of the aqueous solubility parameter estimates. (1) Si=S0·10 ^pH−pKa The impact of bile salt concentration BS and subsequent formation of micelles on the solubility of FLU was investigated. […] Estimates of the logarithm of the micelle-water partition coefficient for the neutral Km:w,unionized and ionized drug Km:w,ionized were obtained to quantify the micelle-mediated solubility. […] Estimation of the relevant parameters was performed using the Nelder–Mead algorithm with weighting by the reciprocal of the predicted values. All estimates based on the in vitro solubility data were used as in silico input parameters for the development of the physiologically based pharmacokinetic (PBPK) model.

UGT2B7 = settings: Recombinant UGT; cited from earlier work
[4] = FLU po 50 mg s.d. + fluconazole po 200 mg q.d. x7, interval 2 h, CYP2C9 1*/1*, median
[5] = FLU po 50 mg s.d. + fluconazole po 200 mg q.d. x7, interval 2 h, CYP2C9 1*/3*
[6] = FLU po 50 mg s.d. + fluconazole po 200 mg q.d. x7, interval 2 h, CYP2C9 3*/3*, individual values (n=2)
[7] = FLU po 50 mg s.d. + fluconazole po 400 mg q.d. x7, interval 2 h, CYP2C9 1*/1*
[8] = FLU po 50 mg s.d. + fluconazole po 400 mg q.d. x7, interval 2 h, CYP2C9 1*/3*
[9] = FLU po 50 mg s.d. + fluconazole po 400 mg q.d. x7, interval 2 h, CYP2C9 3*/3*, individual values (n=2)
[10] = FLU po 50 mg s.d. + fluconazole po 400 mg q.d. x7, interval 2 h
[11] = FLU po 50 mg s.d. + fluconazole po 400 mg s.d., interval 2 h, ref 47
[12] = FLU po 50 mg s.d. + fluconazole po 400 mg s.d., interval 2 h, ref 48
[13] = FLU po 50 mg s.d. + rifampicin po 600 mg q.d. x5, interval 0 h, ref Daali et al.
[14] = FLU po 100 mg s.d. + fluconazole po 200 mg b.i.d. x2, interval 0.5 h, geometric mean, ref 44
[15] = FLU po 100 mg s.d. + fluconazole po 200 mg b.i.d. x2, interval 0.5 h, geometric mean, ref 45
[16] = FLU po 100 mg s.d. + fluconazole po 200 mg b.i.d. x2, interval 0.5 h, ref 46

**Q.** For `CC(C(=O)O)c1ccc(-c2ccccc2)c(F)c1` (stereo not drawn) [flurbiprofen], which “logPo:w” value [1] is on record?
**A.** The value was 3.99.

**Q.** And the maximum dissolved ([2]; FaSSGF Level I, 100 mg)?
**A.** Its maximum dissolved is 5.5%.

**Q.** And the “plateau of in vitro release” value ([2]; FaSSGF Levels I and III, 100 mg)?
**A.** Its value is “around 8.3 % of the dose”.

**Q.** And the “time to 85% dissolved” value ([2]; FaSSIF V3 Level I (without bile components))?
**A.** Its value is 60 min.

**Q.** What about the “time to >85% dissolved” value ([2]; FaSSIF V3 Level II) of the same molecule?
**A.** Its value is at most 2.5 min.

**Q.** And the “time to >85% dissolved” value ([2]; Ph. Eur. phosphate buffer (pH 6.8))?
**A.** The value was at most 15 min.

**Q.** What about the “Papp, Caco-2” value (Caco-2 cells) of the same molecule?
**A.** Its value is 20.1 ×10⁻⁶ cm/s.

**Q.** And the “DDI AUC Ratio obs” value (CYP2C9; [4])?
**A.** Its value is 2.02 ^a.

**Q.** And the “DDI CL/F Ratio obs” value (CYP2C9; [4])?
**A.** The value was 0.5 ^a.

**Q.** And the “DDI Cmax Ratio obs” value (CYP2C9; [4])?
**A.** Its value is 1.03 ^a.

**Q.** What about the “DDI AUC Ratio obs” value (CYP2C9; [5]) of the same molecule?
**A.** The value was 1.8.

**Q.** And the “DDI CL/F Ratio obs” value (CYP2C9; [5])?
**A.** The value was 0.56.

**Q.** What about the “DDI Cmax Ratio obs” value (CYP2C9; [5]) of the same molecule?
**A.** Its value is 0.87.

**Q.** And the “DDI AUC Ratio obs” value (CYP2C9; [6])?
**A.** Its value is 1.58 and 1.28.

**Q.** And the “DDI CL/F Ratio obs” value (CYP2C9; [6])?
**A.** Its value is 0.75 and 0.66.

**Q.** And the “DDI Cmax Ratio obs” value (CYP2C9; [6])?
**A.** Its value is 1.08 and 0.91.

**Q.** And the “DDI AUC Ratio obs” value (CYP2C9; [7])?
**A.** The value was 3.03.

**Q.** What about the “DDI CL/F Ratio obs” value (CYP2C9; [7]) of the same molecule?
**A.** The value was 0.31.

**Q.** What about the “DDI Cmax Ratio obs” value (CYP2C9; [7]) of the same molecule?
**A.** The value was 0.99.

**Q.** And the “DDI AUC Ratio obs” value (CYP2C9; [8])?
**A.** Its value is 2.48.

**Q.** And the “DDI CL/F Ratio obs” value (CYP2C9; [8])?
**A.** Its value is 0.44.

**Q.** What about the “DDI Cmax Ratio obs” value (CYP2C9; [8]) of the same molecule?
**A.** Its value is 0.94.

**Q.** And the “DDI AUC Ratio obs” value (CYP2C9; [9])?
**A.** The value was 1.39 and 1.12.

**Q.** And the “DDI CL/F Ratio obs” value (CYP2C9; [9])?
**A.** Its value is 1.00 and 0.66.

**Q.** And the “DDI Cmax Ratio obs” value (CYP2C9; [9])?
**A.** The value was 0.54 and 0.90.

**Q.** And the “DDI AUC Ratio obs” value (CYP2C9; [10])?
**A.** The value was 2.81.

**Q.** And the “DDI CL/F Ratio obs” value (CYP2C9; [10])?
**A.** The value was 0.35.

**Q.** And the “DDI Cmax Ratio obs” value (CYP2C9; [10])?
**A.** Its value is 1.37.

**Q.** And the “DDI AUC Ratio obs” value (CYP2C9; [11])?
**A.** The value was 2.16.

**Q.** And the “DDI CL/F Ratio obs” value (CYP2C9; [11])?
**A.** Its value is 0.46.

**Q.** And the “DDI Cmax Ratio obs” value (CYP2C9; [11])?
**A.** Its value is 1.24.

**Q.** And the “DDI AUC Ratio obs” value (CYP2C9; [12])?
**A.** The value was 1.21.

**Q.** What about the “DDI CL/F Ratio obs” value (CYP2C9; [12]) of the same molecule?
**A.** Its value is 0.67.

**Q.** What about the “DDI Cmax Ratio obs” value (CYP2C9; [12]) of the same molecule?
**A.** Its value is 1.14.

**Q.** What about the “DDI AUC Ratio obs” value (CYP2C9; [13]) of the same molecule?
**A.** Its value is 0.56.

**Q.** What about the “DDI CL/F Ratio obs” value (CYP2C9; [13]) of the same molecule?
**A.** Its value is 1.85.

**Q.** What about the “DDI Cmax Ratio obs” value (CYP2C9; [13]) of the same molecule?
**A.** The value was 0.71.

**Q.** What about the “DDI AUC Ratio obs” value (CYP2C9; [14]) of the same molecule?
**A.** The value was 1.97 ^b.

**Q.** What about the “DDI Cmax Ratio obs” value (CYP2C9; [14]) of the same molecule?
**A.** Its value is 1.47 ^b.

**Q.** What about the “DDI AUC Ratio obs” value (CYP2C9; [15]) of the same molecule?
**A.** Its value is 1.71 ^b.

**Q.** And the “DDI Cmax Ratio obs” value (CYP2C9; [15])?
**A.** The value was 1.16 ^b.

**Q.** And the “DDI CL/F Ratio obs” value (CYP2C9; FLU po 100 mg s.d. + fluconazole po 200 mg b.i.d. x2, interval 0.5 h, ref 44)?
**A.** The value was 0.5.

**Q.** And the “DDI CL/F Ratio obs” value (CYP2C9; FLU po 100 mg s.d. + fluconazole po 200 mg b.i.d. x2, interval 0.5 h, ref 45)?
**A.** The value was 0.57.

**Q.** And the “DDI AUC Ratio obs” value (CYP2C9; [16])?
**A.** Its value is 1.81.

**Q.** What about the “DDI CL/F Ratio obs” value (CYP2C9; [16]) of the same molecule?
**A.** Its value is 0.55.

**Q.** And the “DDI Cmax Ratio obs” value (CYP2C9; [16])?
**A.** Its value is 1.23.

**Q.** And the “CYP2C9 3*/3*-Vmax” value (CYP2C9 3*/3*)?
**A.** Its value is 8.901 pmol/min/pmol CYP.

**Q.** What about the Km (CYP2C9 3*/3*; read-out: CYP2C9 3*/3*-Km) of the same molecule?
**A.** Its Km is 23.2 µM.

**Q.** What about the Blood/plasma ratio [3] of the same molecule?
**A.** The Blood/plasma ratio was 0.55.

**Q.** And the “Fraction unbound in plasma” value [3]?
**A.** Its value is 0.01.

**Q.** What about the “bound to plasma proteins” value [3] of the same molecule?
**A.** The value was over 99%.

**Q.** What about the Km (UGT1A9) of the same molecule?
**A.** Its Km is 182 µM.

**Q.** And the UGT1A9-Vmax (UGT1A9)?
**A.** The UGT1A9-Vmax was 3.286 pmol/min/mg protein.

**Q.** And the pKa (physchem)?
**A.** Its pKa is 4.05.

**Q.** What about the “CYP2C9 1*/2*-Vmax” value (CYP2C9 1*/2*) of the same molecule?
**A.** The value was 11.53 pmol/min/pmol CYP.

**Q.** What about the Km (UGT2B7) of the same molecule?
**A.** Its Km is 50.2 µM.

**Q.** What about the UGT2B7-Vmax (UGT2B7) of the same molecule?
**A.** The UGT2B7-Vmax was 119.7 pmol/min/mg protein.

— article PMC7693160 (Pharmaceutics, 2020)
